Tests used:
[1] = Corrosion rate by LPR sweep, copper coupons in synthetic water, 50° C., 1 ppm free chlorine after 0.5 hrs (Examples 1 and 2); details: for corrosion inhibition properties over the entire 18 hour period (in words): Example 2
Protocol: (§1) One liter samples of synthetic water were each dosed with the compositions in Table 1.
(§2) The apparatus used for the corrosion testing was a Gamry Multiport Corrosion Cell and Gamry Reference 600+potentiostat with multiplexor. Copper coupons (CDA110) were added to the sample cells containing neutral water (pH 7.5), and the cells were dosed with 50 ppm of scale inhibitor (co-polymer and 2-phosphonobutane-1,2,4-yricarboxylic acid) and heated to 50° C. and maintained at this temperature throughout the testing. The cells were continuously stirred at a speed of 350 rpm. A cylindrical working electrode was submerged into the test solutions, and an LPR sweep (linear polarization resistance) was performed every hour for 18 hours. After the 0.5 hrs mark, 1 ppm of free chlorine was dosed into the corrosion cell.
(§3) One liter samples of the synthetic water described above with respect to Example 1 were each dosed with the compositions in Table 5 and processed under conditions similar to Example 1.

[2] = Cl2 demand in the corrosion cell test (Examples 1 and 2); assay type: physicochemical
Protocol: as §1, §2, §3

[3] = Control normalized Cl2 demand over time (Example 3, FIG. 3); assay type: physicochemical; details: 1 ppm; compared to 50% sodium glucoheptonate (10 ppm)
Source text: One liter samples of the synthetic water described above with respect to Example 1 were each dosed with the compositions in Table 7 and processed under conditions similar to Example 1.

Q: What does the source list for “Disodium Coco Imidazoline Dicarboxylate [DCIMDCC]”?
A: CR Average (10-18 hrs) ([1]; 2 ppm): 0.025 mpy; CR Peak ([1]; 2 ppm): 0.267 mpy; corrosion rate ([1]; 2 ppm, 0 hrs): 0.0395 mpy; corrosion rate ([1]; 2 ppm, 1 hrs): 0.2665 mpy; corrosion rate ([1]; 2 ppm, 2 hrs): 0.1537 mpy; corrosion rate ([1]; 2 ppm, 3 hrs): 0.0908 mpy; corrosion rate ([1]; 2 ppm, 4 hrs): 0.0856 mpy; corrosion rate ([1]; 2 ppm, 5 hrs): 0.0744 mpy; corrosion rate ([1]; 2 ppm, 6 hrs): 0.0600 mpy; corrosion rate ([1]; 2 ppm, 7 hrs): 0.0499 mpy; corrosion rate ([1]; 2 ppm, 8 hrs): 0.0409 mpy; corrosion rate ([1]; 2 ppm, 9 hrs): 0.0375 mpy; corrosion rate ([1]; 2 ppm, 10 hrs): 0.0339 mpy; corrosion rate ([1]; 2 ppm, 11 hrs): 0.0313 mpy; corrosion rate ([1]; 2 ppm, 12 hrs): 0.0283 mpy; corrosion rate ([1]; 2 ppm, 13 hrs): 0.0266 mpy; corrosion rate ([1]; 2 ppm, 14 hrs): 0.0243 mpy; corrosion rate ([1]; 2 ppm, 15 hrs): 0.0224 mpy; corrosion rate ([1]; 2 ppm, 16 hrs): 0.0209 mpy; corrosion rate ([1]; 2 ppm, 17 hrs): 0.0196 mpy; corrosion rate ([1]; 2 ppm, 18 hrs): 0.0188 mpy; Cl2 Demand ([2]; 2 ppm): 0.9 mg/L

Q: With Disodium Cocoamphodiacetate [DCADAA] as the substance, how does the “CR Average (10-18 hrs)” value ([1]; 2 ppm) read?
A: 0.036 mpy

Q: What about the “CR Peak” value ([1]; 2 ppm) of the same substance?
A: 0.180 mpy

Q: And the corrosion rate ([1]; 2 ppm, 0 hrs)?
A: 0.0198 mpy

Q: What about the corrosion rate ([1]; 2 ppm, 1 hrs) of the same substance?
A: 0.1804 mpy

Q: And the corrosion rate ([1]; 2 ppm, 2 hrs)?
A: 0.1576 mpy

Q: What about the corrosion rate ([1]; 2 ppm, 3 hrs) of the same substance?
A: 0.1608 mpy

Q: What about the corrosion rate ([1]; 2 ppm, 4 hrs) of the same substance?
A: 0.1140 mpy

Q: And the corrosion rate ([1]; 2 ppm, 5 hrs)?
A: 0.1360 mpy

Q: What about the corrosion rate ([1]; 2 ppm, 6 hrs) of the same substance?
A: 0.0910 mpy

Q: What about the corrosion rate ([1]; 2 ppm, 7 hrs) of the same substance?
A: 0.0780 mpy

Q: What about the corrosion rate ([1]; 2 ppm, 8 hrs) of the same substance?
A: 0.0629 mpy

Q: What about the corrosion rate ([1]; 2 ppm, 9 hrs) of the same substance?
A: 0.0545 mpy

Q: What about the corrosion rate ([1]; 2 ppm, 10 hrs) of the same substance?
A: 0.0516 mpy

Q: And the corrosion rate ([1]; 2 ppm, 11 hrs)?
A: 0.0459 mpy

Q: What about the corrosion rate ([1]; 2 ppm, 12 hrs) of the same substance?
A: 0.0419 mpy

Q: And the corrosion rate ([1]; 2 ppm, 13 hrs)?
A: 0.0375 mpy

Q: What about the corrosion rate ([1]; 2 ppm, 14 hrs) of the same substance?
A: 0.0349 mpy

Q: What about the corrosion rate ([1]; 2 ppm, 15 hrs) of the same substance?
A: 0.0316 mpy

Q: What about the corrosion rate ([1]; 2 ppm, 16 hrs) of the same substance?
A: 0.0290 mpy

Q: What about the corrosion rate ([1]; 2 ppm, 17 hrs) of the same substance?
A: 0.0246 mpy

Q: What about the corrosion rate ([1]; 2 ppm, 18 hrs) of the same substance?
A: 0.0252 mpy

Q: And the “corrosion inhibition properties over the entire 18 hour period (in words)” value ([1]; 2 ppm)?
A: good corrosion inhibition properties

Q: What about the “Cl2 Demand” value ([2]; 2 ppm) of the same substance?
A: 0.6 mg/L

Q: With Sodium Cocoamphoacetate [SCAA] as the substance, how does the “CR Average (10-18 hrs)” value ([1]; 2 ppm) read?
A: 0.017 mpy

Q: What about the “CR Peak” value ([1]; 2 ppm) of the same substance?
A: 0.197 mpy

Q: And the corrosion rate ([1]; 2 ppm, 0 hrs)?
A: 0.0217 mpy

Q: And the corrosion rate ([1]; 2 ppm, 1 hrs)?
A: 0.1969 mpy

Q: And the corrosion rate ([1]; 2 ppm, 2 hrs)?
A: 0.0988 mpy

Q: What about the corrosion rate ([1]; 2 ppm, 3 hrs) of the same substance?
A: 0.0761 mpy

Q: And the corrosion rate ([1]; 2 ppm, 4 hrs)?
A: 0.0602 mpy

Q: And the corrosion rate ([1]; 2 ppm, 5 hrs)?
A: 0.0506 mpy

Q: And the corrosion rate ([1]; 2 ppm, 6 hrs)?
A: 0.0473 mpy

Q: And the corrosion rate ([1]; 2 ppm, 7 hrs)?
A: 0.0347 mpy

Q: What about the corrosion rate ([1]; 2 ppm, 8 hrs) of the same substance?
A: 0.0293 mpy

Q: What about the corrosion rate ([1]; 2 ppm, 9 hrs) of the same substance?
A: 0.0257 mpy

Q: What about the corrosion rate ([1]; 2 ppm, 10 hrs) of the same substance?
A: 0.0231 mpy

Q: What about the corrosion rate ([1]; 2 ppm, 11 hrs) of the same substance?
A: 0.0212 mpy

Q: What about the corrosion rate ([1]; 2 ppm, 12 hrs) of the same substance?
A: 0.0191 mpy

Q: What about the corrosion rate ([1]; 2 ppm, 13 hrs) of the same substance?
A: 0.0177 mpy

Q: What about the corrosion rate ([1]; 2 ppm, 14 hrs) of the same substance?
A: 0.0166 mpy

Q: And the corrosion rate ([1]; 2 ppm, 15 hrs)?
A: 0.0156 mpy

Q: What about the corrosion rate ([1]; 2 ppm, 16 hrs) of the same substance?
A: 0.0142 mpy

Q: And the corrosion rate ([1]; 2 ppm, 17 hrs)?
A: 0.0139 mpy

Q: And the corrosion rate ([1]; 2 ppm, 18 hrs)?
A: 0.0128 mpy

Q: And the “corrosion inhibition properties over the entire 18 hour period (in words)” value ([1]; 2 ppm)?
A: good corrosion inhibition properties

Q: What about the “Cl2 Demand” value ([2]; 2 ppm) of the same substance?
A: 1.0 mg/L

Q: With “sodium dicarboxylethyl coco phosphoethyl imidazoline [SDCPI]” as the substance, how does the “control normalized C12 demand over time (in words)” value [3] read?
A: did not result in significant loss of C12 demand

Q: And the “CR Average (10-18 hrs)” value ([1]; 1 ppm)?
A: 0.224 mpy

Q: And the “CR Peak” value ([1]; 1 ppm)?
A: 0.279 mpy

Q: What about the corrosion rate ([1]; 1 ppm, 0 hrs) of the same substance?
A: 0.025 mpy

Q: What about the corrosion rate ([1]; 1 ppm, 1 hrs) of the same substance?
A: 0.279 mpy

Q: And the corrosion rate ([1]; 1 ppm, 2 hrs)?
A: 0.252 mpy

Q: And the corrosion rate ([1]; 1 ppm, 3 hrs)?
A: 0.257 mpy

Q: What about the corrosion rate ([1]; 1 ppm, 4 hrs) of the same substance?
A: 0.245 mpy

Q: What about the corrosion rate ([1]; 1 ppm, 5 hrs) of the same substance?
A: 0.214 mpy

Q: What about the corrosion rate ([1]; 1 ppm, 6 hrs) of the same substance?
A: 0.200 mpy

Q: And the corrosion rate ([1]; 1 ppm, 7 hrs)?
A: 0.184 mpy

Q: What about the corrosion rate ([1]; 1 ppm, 8 hrs) of the same substance?
A: 0.175 mpy

Q: What about the corrosion rate ([1]; 1 ppm, 9 hrs) of the same substance?
A: 0.174 mpy

Q: And the corrosion rate ([1]; 1 ppm, 10 hrs)?
A: 0.182 mpy

Q: And the corrosion rate ([1]; 1 ppm, 11 hrs)?
A: 0.197 mpy

Q: And the corrosion rate ([1]; 1 ppm, 12 hrs)?
A: 0.213 mpy

Q: And the corrosion rate ([1]; 1 ppm, 13 hrs)?
A: 0.226 mpy

Q: And the corrosion rate ([1]; 1 ppm, 14 hrs)?
A: 0.240 mpy

Q: And the corrosion rate ([1]; 1 ppm, 15 hrs)?
A: 0.247 mpy

Q: And the corrosion rate ([1]; 1 ppm, 16 hrs)?
A: 0.249 mpy

Q: And the corrosion rate ([1]; 1 ppm, 17 hrs)?
A: 0.241 mpy

Q: What about the corrosion rate ([1]; 1 ppm, 18 hrs) of the same substance?
A: 0.226 mpy

Q: And the “CR Average (10-18 hrs)” value ([1]; 2 ppm)?
A: 0.013 mpy

Q: And the “CR Peak” value ([1]; 2 ppm)?
A: 0.092 mpy

Q: And the corrosion rate ([1]; 2 ppm, 0 hrs)?
A: 0.0168 mpy

Q: What about the corrosion rate ([1]; 2 ppm, 1 hrs) of the same substance?
A: 0.0923 mpy

Q: And the corrosion rate ([1]; 2 ppm, 2 hrs)?
A: 0.0637 mpy

Q: And the corrosion rate ([1]; 2 ppm, 3 hrs)?
A: 0.0529 mpy

Q: And the corrosion rate ([1]; 2 ppm, 4 hrs)?
A: 0.0240 mpy

Q: And the corrosion rate ([1]; 2 ppm, 5 hrs)?
A: 0.0173 mpy

Q: And the corrosion rate ([1]; 2 ppm, 6 hrs)?
A: 0.0164 mpy

Q: What about the corrosion rate ([1]; 2 ppm, 7 hrs) of the same substance?
A: 0.0167 mpy

Q: What about the corrosion rate ([1]; 2 ppm, 8 hrs) of the same substance?
A: 0.0171 mpy

Q: What about the corrosion rate ([1]; 2 ppm, 9 hrs) of the same substance?
A: 0.0179 mpy

Q: What about the corrosion rate ([1]; 2 ppm, 10 hrs) of the same substance?
A: 0.0165 mpy

Q: What about the corrosion rate ([1]; 2 ppm, 11 hrs) of the same substance?
A: 0.0151 mpy

Q: What about the corrosion rate ([1]; 2 ppm, 12 hrs) of the same substance?
A: 0.0139 mpy

Q: And the corrosion rate ([1]; 2 ppm, 13 hrs)?
A: 0.0133 mpy

Q: What about the corrosion rate ([1]; 2 ppm, 14 hrs) of the same substance?
A: 0.0127 mpy

Q: And the corrosion rate ([1]; 2 ppm, 15 hrs)?
A: 0.0117 mpy

Q: What about the corrosion rate ([1]; 2 ppm, 16 hrs) of the same substance?
A: 0.0116 mpy

Q: What about the corrosion rate ([1]; 2 ppm, 17 hrs) of the same substance?
A: 0.0113 mpy

Q: What about the corrosion rate ([1]; 2 ppm, 18 hrs) of the same substance?
A: 0.0103 mpy

Q: And the “CR Average (10-18 hrs)” value ([1]; 3 ppm)?
A: 0.042 mpy

Q: What about the “CR Peak” value ([1]; 3 ppm) of the same substance?
A: 0.053 mpy

Q: What about the corrosion rate ([1]; 3 ppm, 0 hrs) of the same substance?
A: 0.013 mpy

Q: And the corrosion rate ([1]; 3 ppm, 1 hrs)?
A: 0.053 mpy

Q: And the corrosion rate ([1]; 3 ppm, 2 hrs)?
A: 0.039 mpy

Q: And the corrosion rate ([1]; 3 ppm, 3 hrs)?
A: 0.043 mpy

Q: What about the corrosion rate ([1]; 3 ppm, 4 hrs) of the same substance?
A: 0.042 mpy

Q: And the corrosion rate ([1]; 3 ppm, 5 hrs)?
A: 0.042 mpy

Q: What about the corrosion rate ([1]; 3 ppm, 6 hrs) of the same substance?
A: 0.044 mpy

Q: What about the corrosion rate ([1]; 3 ppm, 7 hrs) of the same substance?
A: 0.044 mpy

Q: And the corrosion rate ([1]; 3 ppm, 8 hrs)?
A: 0.044 mpy

Q: And the corrosion rate ([1]; 3 ppm, 9 hrs)?
A: 0.046 mpy

Q: And the corrosion rate ([1]; 3 ppm, 10 hrs)?
A: 0.046 mpy

Q: And the corrosion rate ([1]; 3 ppm, 11 hrs)?
A: 0.046 mpy

Q: What about the corrosion rate ([1]; 3 ppm, 12 hrs) of the same substance?
A: 0.044 mpy

Q: And the corrosion rate ([1]; 3 ppm, 13 hrs)?
A: 0.043 mpy

Q: What about the corrosion rate ([1]; 3 ppm, 14 hrs) of the same substance?
A: 0.042 mpy

Q: What about the corrosion rate ([1]; 3 ppm, 15 hrs) of the same substance?
A: 0.041 mpy

Q: What about the corrosion rate ([1]; 3 ppm, 16 hrs) of the same substance?
A: 0.040 mpy

Q: And the corrosion rate ([1]; 3 ppm, 17 hrs)?
A: 0.039 mpy

Q: What about the corrosion rate ([1]; 3 ppm, 18 hrs) of the same substance?
A: 0.038 mpy

Q: What about the “corrosion inhibition properties over the entire 18 hour period (in words)” value ([1]; 2 ppm) of the same substance?
A: good corrosion inhibition properties

Q: And the “Cl2 Demand” value ([2]; 1 ppm)?
A: 0.3 mg/L

Q: What about the “Cl2 Demand” value ([2]; 2 ppm) of the same substance?
A: 0.9 mg/L

Q: And the “Cl2 Demand” value ([2]; 3 ppm)?
A: 0.8 mg/L

— patent US20250270707A1, “NON-TRIAZOLE IMIDAZOLINE AND AMIDE COMPOUNDS AND METHODS FOR INHIBITING CORROSION IN INDUSTRIAL WATER TREATMENT” (CHEMTREAT, INC., priority 2023, published 2025)
